Data taken from patent publication US11235976B2, “Nanocarbon-iron composite system as well as composition, preparation method and use thereof” (Chongqing Lummy Pharmaceutical Co., LTD, priority 2017, dated 2022).

Legend:
[1] = test system: lymph node metastasis of 9 types of tumor cells; experiment: Lymph node metastasis inhibition experiment, summary; assay type: in vivo, mice
Procedure: (§1) Cells growing in a log phase are collected, the concentration of the cell suspension is adjusted to 3×10^7 cells/mL, the cell suspension is inoculated subcutaneously into the left hind foot pads of each nude mouse at the inoculation volume of 0.05 mL (about 1.5×10^6 cells) and thus a lymph node metastasis mouse model is obtained. The mice are treated when the diameter of the tumor reaches 6-8 mm and there is no ulcer and necrosis. The mice are randomly divided into four groups (10 mice per group): a negative control group (0.9% sodium chloride injection), a nanocarbon control group, an iron preparation control group and a nanocarbon-iron suspension experimental group. 10 days after inoculation, the mice are killed, and popliteal lymph nodes are collected, weighed and fixed for pathological examination.
(§2) Milky white and thick ascites is extracted from the H22 tumor-bearing mice, the concentration is adjusted to be 3×10^7 cells/mL, 0.05 mL of cell suspension (about 1.5×10^6 cells) is inoculated subcutaneously into the left hind foot pads of each Kunming mouse, and thus a lymph node metastasis mouse model is obtained. The mice are treated when the diameter of the tumor reaches 6-8 mm and there is no ulcer and necrosis. The mice are randomly divided into four groups (10 mice per group): a negative control group (0.9% sodium chloride injection), a nanocarbon control group, an iron preparation control group and a nanocarbon-iron suspension experimental group. 10 days after inoculation, the mice are killed, and popliteal lymph nodes are collected, weighed and fixed for pathological examination.

[2] = test system: MDA-MB-231 metastatic lymph nodes; experiment: Lymph node metastasis inhibition experiment; assay type: in vivo, nude mouse; settings: popliteal lymph nodes
Procedure: as §1

[3] = test system: Hela metastatic lymph nodes; experiment: Lymph node metastasis inhibition experiment; assay type: in vivo, nude mouse; settings: popliteal lymph nodes
Procedure: as §1

[4] = test system: SGC-7901 metastatic lymph nodes; experiment: Lymph node metastasis inhibition experiment; assay type: in vivo, nude mouse; settings: popliteal lymph nodes
Procedure: as §1

[5] = test system: A549 metastatic lymph nodes; experiment: Lymph node metastasis inhibition experiment; assay type: in vivo, nude mouse; settings: popliteal lymph nodes
Procedure: as §1

[6] = test system: TPC-1 metastatic lymph nodes; experiment: Lymph node metastasis inhibition experiment; assay type: in vivo, nude mouse; settings: popliteal lymph nodes
Procedure: as §1

[7] = test system: HCT116 metastatic lymph nodes; experiment: Lymph node metastasis inhibition experiment; assay type: in vivo, nude mouse; settings: popliteal lymph nodes
Procedure: as §1

[8] = test system: SMMC-7721 metastatic lymph nodes; experiment: Lymph node metastasis inhibition experiment; assay type: in vivo, nude mouse; settings: popliteal lymph nodes
Procedure: as §1

[9] = test system: SKOV3 metastatic lymph nodes; experiment: Lymph node metastasis inhibition experiment; assay type: in vivo, nude mouse; settings: popliteal lymph nodes
Procedure: as §1

[10] = test system: TPC-1 thyroid cancer cells; experiment: Cell experiment, cell survival rate; assay type: cell-based; settings: 48 h
Procedure: (§3) Cells growing in a log phase are collected, the concentration of the cell suspension is adjusted, 100 μL of cell suspension is added to each well and the cells are plated (edge wells are filled with sterile PBS) at a density of 1×10^3-10^4 cells/well. The cells are incubated for 24 hours at 37° C. under the condition of 5% CO2, a nanocarbon-iron solution having a concentration gradient (nanocarbon content: 125, 62.5, 15.63 and 3.91 μg/mL; and ferric ion content: 13.65, 6.83, 1.71 and 0.43 μg/mL) is added, and three sub-wells are set. Then the cells are incubated for 48 hours at 37° C. under the condition of 5% CO2. 10 μL of CCK8 solution is added to each well and then the cells are continuously incubated for 2 hours. The absorbance of each well is measured at OD=450 nm with the microplate reader. In addition, a negative control group, nanocarbon control groups having the same concentration and iron preparation control groups having the same concentration are set.
as §3, with “and 1” for “100”, “of a 6-well plate” for “and the cells are plated (edge wells are filled with sterile PBS)”, “3×10^4” for “1×10^3-10^4”, “1.71,” for “1.71 and”, “The” for “10 μL of CCK8 solution is added to each well and then the”, “trypsinized and counted.” for “continuously incubated for 2 hours. The absorbance of each well is measured at OD=450 nm with the microplate reader.”

[11] = test system: SKOV3 ovarian cancer cells; experiment: Cell experiment, cell survival rate; assay type: cell-based; settings: 48 h
Procedure: as §3
as §3, with “and 1” for “100”, “of a 6-well plate” for “and the cells are plated (edge wells are filled with sterile PBS)”, “3×10^4” for “1×10^3-10^4”, “1.71,” for “1.71 and”, “The” for “10 μL of CCK8 solution is added to each well and then the”, “trypsinized and counted.” for “continuously incubated for 2 hours. The absorbance of each well is measured at OD=450 nm with the microplate reader.”

[12] = test system: Hela cervical cancer cells; experiment: Cell experiment, cell survival rate; assay type: cell-based; settings: 48 h
Procedure: as §3
as §3, with “and 1” for “100”, “of a 6-well plate” for “and the cells are plated (edge wells are filled with sterile PBS)”, “3×10^4” for “1×10^3-10^4”, “1.71,” for “1.71 and”, “The” for “10 μL of CCK8 solution is added to each well and then the”, “trypsinized and counted.” for “continuously incubated for 2 hours. The absorbance of each well is measured at OD=450 nm with the microplate reader.”

[13] = test system: murine liver cancer H22 cells; experiment: Cell experiment, cell survival rate; assay type: cell-based; settings: 48 h
Procedure: as §3
as §3, with “and 1” for “100”, “of a 6-well plate” for “and the cells are plated (edge wells are filled with sterile PBS)”, “3×10^4” for “1×10^3-10^4”, “1.71,” for “1.71 and”, “The” for “10 μL of CCK8 solution is added to each well and then the”, “trypsinized and counted.” for “continuously incubated for 2 hours. The absorbance of each well is measured at OD=450 nm with the microplate reader.”

[14] = test system: SGC-7901 stomach cancer cells; experiment: Cell experiment, cell survival rate; assay type: cell-based; settings: 48 h
Procedure: as §3
as §3, with “and 1” for “100”, “of a 6-well plate” for “and the cells are plated (edge wells are filled with sterile PBS)”, “3×10^4” for “1×10^3-10^4”, “1.71,” for “1.71 and”, “The” for “10 μL of CCK8 solution is added to each well and then the”, “trypsinized and counted.” for “continuously incubated for 2 hours. The absorbance of each well is measured at OD=450 nm with the microplate reader.”

[15] = test system: A549 lung cancer cells; experiment: Cell experiment, cell survival rate; assay type: cell-based; settings: 48 h
Procedure: as §3
as §3, with “and 1” for “100”, “of a 6-well plate” for “and the cells are plated (edge wells are filled with sterile PBS)”, “3×10^4” for “1×10^3-10^4”, “1.71,” for “1.71 and”, “The” for “10 μL of CCK8 solution is added to each well and then the”, “trypsinized and counted.” for “continuously incubated for 2 hours. The absorbance of each well is measured at OD=450 nm with the microplate reader.”

[16] = test system: SMMC7721 liver cancer cells; experiment: Cell experiment, cell survival rate; assay type: cell-based; settings: SMMC-7721, 48 h
Procedure: as §3
as §3, with “and 1” for “100”, “of a 6-well plate” for “and the cells are plated (edge wells are filled with sterile PBS)”, “3×10^4” for “1×10^3-10^4”, “1.71,” for “1.71 and”, “The” for “10 μL of CCK8 solution is added to each well and then the”, “trypsinized and counted.” for “continuously incubated for 2 hours. The absorbance of each well is measured at OD=450 nm with the microplate reader.”

[17] = test system: HCT116 colon cancer cells; experiment: Cell experiment, cell survival rate; assay type: cell-based; settings: 48 h
Procedure: as §3
as §3, with “and 1” for “100”, “of a 6-well plate” for “and the cells are plated (edge wells are filled with sterile PBS)”, “3×10^4” for “1×10^3-10^4”, “1.71,” for “1.71 and”, “The” for “10 μL of CCK8 solution is added to each well and then the”, “trypsinized and counted.” for “continuously incubated for 2 hours. The absorbance of each well is measured at OD=450 nm with the microplate reader.”

[18] = test system: MDA-MB-231 breast cancer cells; experiment: Cell experiment, cell survival rate; assay type: cell-based; settings: 48 h
Procedure: as §3
as §3, with “and 1” for “100”, “of a 6-well plate” for “and the cells are plated (edge wells are filled with sterile PBS)”, “3×10^4” for “1×10^3-10^4”, “1.71,” for “1.71 and”, “The” for “10 μL of CCK8 solution is added to each well and then the”, “trypsinized and counted.” for “continuously incubated for 2 hours. The absorbance of each well is measured at OD=450 nm with the microplate reader.”

[19] = test system: H22 metastatic lymph nodes; experiment: Lymph node metastasis inhibition experiment; assay type: in vivo, Kunming mouse; settings: popliteal lymph nodes
Procedure: as §2

[20] = test system: subcutaneous transplantation tumors of 9 types of cancer cells; experiment: Tumor growth inhibition experiments, subcutaneous transplantation tumors; assay type: in vivo, mice; settings: FIGS. 4-39
Procedure: Cells growing in a log phase are collected, the concentration of the cell suspension is adjusted to 3×10^7 cells/mL, and the cell suspension is inoculated subcutaneously into the right upper extremities of nude mice at the inoculation dosage of 0.1 mL (about 3×10^6 cells) per mouse. When the average tumor volume of the inoculated mice reaches 100 mm^3, the tumor-bearing mice are randomly divided into the following groups (8 nude mice per group): a negative control group (0.9% sodium chloride injection), a nanocarbon control group, an iron preparation control group, a nanocarbon-iron suspension experimental group, and a cis-platinum control group (intraperitoneal injection at the dosage of 5 mg/kg). The above various drugs are injected into the tumors. The tumor volume changes are recorded, and the formula for calculating the volume is Volume=(length×the square of width)/2.
Milky white and thick ascites is extracted from the H22 tumor-bearing mice, the concentration of the cell suspension is adjusted to be 3×10^7 cells/mL, 0.1 mL of cell suspension (about 3×10^6 cells) is inoculated subcutaneously into the right upper extremity of each of Kunming mice. When the average tumor volume of the inoculated mice reaches 100 mm^3, the tumor-bearing mice are randomly divided into the following groups (8 mice per group): a negative control group (0.9% sodium chloride injection), a nanocarbon control group, an iron preparation control group, a nanocarbon-iron suspension experimental group, and a cis-platinum control group (intraperitoneal injection at the dosage of 5 mg/kg). The above various drugs are injected into the tumors. The tumor volume changes are recorded, and the formula for calculating the volume is Volume=(length×the square of width)/2.

[21] = iron preparation alone 0.43 μg/mL
[22] = iron preparation alone 1.71 μg/mL
[23] = iron preparation alone 6.83 μg/mL
[24] = iron preparation alone 13.65 μg/mL

ferrous sulfate was tested, and the “inhibition effect on the metastatic lymph nodes” value [1] was “do not have an inhibition effect”, the “Weight of Lymph Node” value [2] was 40.18 ± 11.14 mg and the “Weight of Lymph Node” value [3] was 29.48 ± 6.46 mg. For the same substance, the “Weight of Lymph Node” value [4] was 50.12 ± 20.94 mg, the “Weight of Lymph Node” value [5] was 44.97 ± 16.53 mg and the “Weight of Lymph Node” value [6] was 35.71 ± 13.45 mg. The “Weight of Lymph Node” value [7] was 48.12 ± 10.58 mg, the “Weight of Lymph Node” value [8] was 50.19 ± 18.73 mg and the “Weight of Lymph Node” value [9] was 35.62 ± 6.94 mg. For the same substance, the “Cell Survival Rate” value [10, 21] was 100%, the “Cell Survival Rate” value [10, 22] was 100% and the “Cell Survival Rate” value [10, 23] was 98.75%. The “Cell Survival Rate” value [10, 24] was 93.64%, the “Cell Survival Rate” value [11, 21] was 97.89% and the “Cell Survival Rate” value [11, 22] was 100%. For the same substance, the “Cell Survival Rate” value [11, 23] was 95.78%, the “Cell Survival Rate” value [11, 24] was 96.47% and the “Cell Survival Rate” value [12, 21] was 100%. For the same substance, the “Cell Survival Rate” value [12, 22] was 100%, the “Cell Survival Rate” value [12, 23] was 100% and the “Cell Survival Rate” value [12, 24] was 93.99%. The “Cell Survival Rate” value [13, 21] was 100%, the “Cell Survival Rate” value [13, 22] was 95.24% and the “Cell Survival Rate” value [13, 23] was 97.16%. The “Cell Survival Rate” value [13, 24] was 100%, the “Cell Survival Rate” value [14, 21] was 100% and the “Cell Survival Rate” value [14, 22] was 93.78%. For the same substance, the “Cell Survival Rate” value [14, 23] was 98.42%, the “Cell Survival Rate” value [14, 24] was 100% and the “Cell Survival Rate” value [15, 21] was 100%. For the same substance, the “Cell Survival Rate” value [15, 22] was 94.18%, the “Cell Survival Rate” value [15, 23] was 95.12% and the “Cell Survival Rate” value [15, 24] was 100%. For the same substance, the “Cell Survival Rate” value [16, 21] was 100%, the “Cell Survival Rate” value [16, 22] was 100% and the “Cell Survival Rate” value [16, 23] was 100%. The “Cell Survival Rate” value [16, 24] was 97.46%, the “Cell Survival Rate” value [17, 21] was 98.32% and the “Cell Survival Rate” value [17, 22] was 100%. For the same substance, the “Cell Survival Rate” value [17, 23] was 97.68%, the “Cell Survival Rate” value [17, 24] was 94.07% and the “Cell Survival Rate” value [18, 21] was 100%. The “Cell Survival Rate” value [18, 22] was 100%, the “Cell Survival Rate” value [18, 23] was 100% and the “Cell Survival Rate” value [18, 24] was 100%. For the same substance, the “Weight of Lymph Node” value [19] was 44.27 ± 20.69 mg and the “inhibition effect on growth of 9 types of tumors” value [20] was “do not have an inhibition effect”.
